Drawing on patent US20230117034A1, “PYRAZOLOTRIAZINES” (Bayer Aktiengesellschaft, priority 2019, published 2023), this text covers IC50 for three compounds.

In experiment [1] the test system is BRCA1 mRNA expression in MDA-MB-231 cells. In words: qRT-PCR assay: BRCA1 mRNA expression in MDA-MB-231. Conditions: Homo sapiens, MDA-MB-231, Inhibition of BRCA1 mRNA expression in MDA-MB-231 cells; median; read-out: RTqPCR-MDA-MB-231, IC50, BRCA1 (median). It is filed as cell-based, human. The procedure, abridged: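 GAPDH-normalised RT-qPCR measures the transcript after 24 h continuous compound treatment of cells seeded at 200,000/well one day earlier.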
(Quantitative PCR measures a nucleic acid by following its amplification.)

For experiment [2], the target named is CDK12/CycK (Homo sapiens, UniProt Q9NYV4). In words: CDK12/CycK high ATP kinase assay (TR-FRET, 2 mM ATP). It is filed as biochemical. Conditions: 2 mM ATP (high ATP); median; read-out: CDK12/CyclinK, 2 mM ATP (high ATP), IC50-[mol/l] (median). The procedure, abridged: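 His-tagged human CDK12/CycK (~0.75 nM) pre-incubated 15 min with compound, then 60 min at 22 °C with 2 mM ATP and 1 µM biotinylated peptide (HEPES pH 7.5, 20 mM MgCl2). EDTA stop; phospho-Ser62 antibody/Eu anti-rabbit and streptavidin-XL665 TR-FRET, 665/620 nm ratio normalised to give IC50.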
In general terms: Time-resolved FRET reads energy transfer from a long-lived donor to a nearby acceptor.

For experiment [3], the system named is CAL-120, human breast adenocarcinoma cells. Put plainly: Proliferation assay CAL-120 (crystal violet, 4 days). It is filed as cell-based. The conditions noted are these: Homo sapiens, CAL-120, 96 h, CAL-120 cells, median, read-out: Prolif-CAL-120, IC50-[mol/l] (median). Put shortly:
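Following a 24 h attachment in 10% fetal calf serum medium, cells receive test substance over 0.01-10 µmol/L for 4 days. Dye retained by fixed cells is eluted and read at 595 nm; cell number change is referenced to day-0 and untreated wells.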

Chain of CDK12/CycK (Q9NYV4 with tags, fused parts or gaps): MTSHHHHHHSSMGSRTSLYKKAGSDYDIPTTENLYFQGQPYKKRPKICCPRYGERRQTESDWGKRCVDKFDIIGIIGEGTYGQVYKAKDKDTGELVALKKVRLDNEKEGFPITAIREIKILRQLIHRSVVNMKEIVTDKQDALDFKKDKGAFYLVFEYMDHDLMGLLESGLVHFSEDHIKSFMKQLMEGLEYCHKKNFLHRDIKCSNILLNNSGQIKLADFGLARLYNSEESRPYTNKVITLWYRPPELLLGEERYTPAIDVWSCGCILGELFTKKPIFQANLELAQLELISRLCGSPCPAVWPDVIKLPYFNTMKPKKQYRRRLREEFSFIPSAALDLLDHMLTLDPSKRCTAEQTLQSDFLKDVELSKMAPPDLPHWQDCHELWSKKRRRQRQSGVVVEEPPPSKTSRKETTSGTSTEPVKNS
Chain of CDK12/CycK (O75909 1-300 partner limits assumed): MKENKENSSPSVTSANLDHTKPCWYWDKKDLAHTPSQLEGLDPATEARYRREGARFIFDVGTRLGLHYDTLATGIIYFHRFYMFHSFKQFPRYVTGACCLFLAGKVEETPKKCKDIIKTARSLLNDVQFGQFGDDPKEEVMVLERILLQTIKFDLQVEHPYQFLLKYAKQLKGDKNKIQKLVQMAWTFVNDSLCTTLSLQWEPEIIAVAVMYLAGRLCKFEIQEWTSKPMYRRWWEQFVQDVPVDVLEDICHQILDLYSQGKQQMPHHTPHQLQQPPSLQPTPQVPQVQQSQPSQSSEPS

For `Brc1cnn2c(NCc3nc4ccccc4[nH]3)nc(N3C[C@@H]4C[C@H]3CN4)nc12` [Example 270, N-[(1H-benzimidazol-2-yl)methyl]-8-bromo-2-[(1S,4S)-2,5-diazabicyclo[2.2.1]heptan-2-yl]pyrazolo[1,5-a][1,3,5]triazin-4-amine], the IC50 in experiment [1] was found to be 6.41 nM; in experiment [2] it was 13700 nM; in experiment [3] it was 6.92 nM.

Regarding `FC(F)(F)Cc1cnn2c(NCc3nc4cc(Cl)ccc4[nH]3)nc(N3CCOCC3)nc12` [Example 299, N-[(5-chloro-1H-benzimidazol-2-yl)methyl]-2-(morpholin-4-yl)-8-(2,2,2-trifluoroethyl)pyrazolo[1,5-a][1,3,5]triazin-4-amine], the figures for the IC50 in experiment [1], in experiment [2] and in experiment [3] were 8.86 nM, 6390 nM and 4.71 nM, respectively.

For the compound `Fc1ccc2[nH]c(CNc3nc(N4CCOCC4)nc4c(C(F)(F)F)cnn34)nc2c1` [Example 273, N-[(5-fluoro-1H-benzimidazol-2-yl)methyl]-2-(morpholin-4-yl)-8-(trifluoromethyl)pyrazolo[1,5-a][1,3,5]triazin-4-amine], the figures for the IC50 in experiment [1], in experiment [2] and in experiment [3] were 1.95 nM, 983 nM and 4.49 nM, respectively.
